In PubChem BioAssay AID686923 (Vanderbilt Specialized Chemistry Center, 2013) one finds IC50 data, which are given here for three compounds.

The source made the active and inactive calls. No rule for the calls is given here.

Assay [1] has as its target Vascular endothelial growth factor receptor 2 (Homo sapiens) (UniProt P35968). Briefly: PubChem AID 686923. The settings on record: in vitro kinase counter-screen panel. Background: Counterscreens check selectivity or assay interference.
Assay [2] deals with In vitro counter assay against key known off-targets for selectedBMP Compounds. Briefly: PubChem AID 686923. The settings on record: in vitro kinase counter-screen panel.

Sequence of Vascular endothelial growth factor receptor 2 (Homo sapiens) (P35968 whole entry, looked up): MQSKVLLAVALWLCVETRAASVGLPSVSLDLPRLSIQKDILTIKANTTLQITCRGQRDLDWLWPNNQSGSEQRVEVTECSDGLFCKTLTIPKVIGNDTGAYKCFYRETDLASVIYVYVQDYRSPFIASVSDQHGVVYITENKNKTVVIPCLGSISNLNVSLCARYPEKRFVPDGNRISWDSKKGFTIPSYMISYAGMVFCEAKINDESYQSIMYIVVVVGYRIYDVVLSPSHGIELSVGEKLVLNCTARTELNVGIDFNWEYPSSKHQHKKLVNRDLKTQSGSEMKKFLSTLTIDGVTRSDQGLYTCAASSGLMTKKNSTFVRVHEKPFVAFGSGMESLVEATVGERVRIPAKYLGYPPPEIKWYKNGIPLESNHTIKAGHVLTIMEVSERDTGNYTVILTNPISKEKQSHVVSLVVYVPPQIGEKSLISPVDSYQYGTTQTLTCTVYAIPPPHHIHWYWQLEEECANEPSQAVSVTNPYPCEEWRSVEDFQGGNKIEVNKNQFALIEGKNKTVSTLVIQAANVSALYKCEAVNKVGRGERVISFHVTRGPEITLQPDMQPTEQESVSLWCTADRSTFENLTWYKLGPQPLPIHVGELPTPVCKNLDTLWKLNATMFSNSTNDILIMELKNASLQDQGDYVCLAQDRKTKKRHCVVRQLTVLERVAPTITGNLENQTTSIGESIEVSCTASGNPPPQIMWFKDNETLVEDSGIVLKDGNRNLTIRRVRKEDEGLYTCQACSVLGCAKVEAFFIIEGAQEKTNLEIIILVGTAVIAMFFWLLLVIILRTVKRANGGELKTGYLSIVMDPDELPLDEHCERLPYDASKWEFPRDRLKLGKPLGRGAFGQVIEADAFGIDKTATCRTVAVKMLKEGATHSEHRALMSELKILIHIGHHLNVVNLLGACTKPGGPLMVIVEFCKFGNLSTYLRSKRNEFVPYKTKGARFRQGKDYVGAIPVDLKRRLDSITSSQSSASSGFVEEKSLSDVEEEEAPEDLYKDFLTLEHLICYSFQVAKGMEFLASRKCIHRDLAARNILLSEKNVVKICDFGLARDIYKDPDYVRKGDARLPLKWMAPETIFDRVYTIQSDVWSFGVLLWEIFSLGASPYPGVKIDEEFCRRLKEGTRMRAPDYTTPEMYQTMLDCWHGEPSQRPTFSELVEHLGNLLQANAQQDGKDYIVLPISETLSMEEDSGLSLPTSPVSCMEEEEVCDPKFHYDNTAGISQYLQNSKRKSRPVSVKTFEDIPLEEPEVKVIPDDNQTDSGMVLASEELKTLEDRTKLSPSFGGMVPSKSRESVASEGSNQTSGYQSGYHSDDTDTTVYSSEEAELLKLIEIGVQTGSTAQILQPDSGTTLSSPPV

Turning to `COc1ccc(-c2cnc3c(-c4cccc5ncccc45)cnn3c2)cc1`, the IC50 (usually the concentration that inhibits the measured activity by half) in assay [1] was “inactive”.

As to `c1cc(-c2cnn3cc(-c4ccc(N5CCNCC5)cc4)cnc23)c2cccnc2c1`, in assay [2], the IC50 was 253 µM.

On to `COc1ccc(-c2cnc3c(-c4cccc5cccnc45)cnn3c2)cc1`, for which the IC50 result in assay [1] and in assay [2] was “inactive” each time.
